Laboratory results reported in the supplement of paper PMC10307832.

Experiments:
Experiment in all cases: relative viability (nuclei count vs DMSO), 5 days (fraction); higher = more cells survive
[1] = system: UMC-11
Summary of the method: (§1)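 Lung cancer cell lines in 1536-well plates got either a single drug or a fixed anchor-drug dose together with five library-drug doses (not always all listed) in √10 steps, by pin tool, on the day after seeding. Nuclei were counted after 5 days, and relative viability is the treated-to-vehicle ratio of nuclei counts. Values are medians of duplicate plates.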

[2] = system: NCI-H2023
Summary of the method: as §1

[3] = system: EMC-BAC-2
Summary of the method: as §1

[4] = system: NCI-H650
Summary of the method: as §1

[5] = system: NCI-H2405
Summary of the method: as §1

[6] = system: NCI-H1793
Summary of the method: as §1

[7] = system: NCI-H322M
Summary of the method: as §1

[8] = system: NCI-H1395
Summary of the method: as §1

[9] = system: HCC-827
Summary of the method: as §1

[10] = system: LCLC-103H
Summary of the method: as §1

[11] = system: NCI-H1944
Summary of the method: as §1

[12] = system: SK-MES-1
Summary of the method: as §1

[13] = system: H3255
Summary of the method: as §1

[14] = system: NCI-H520
Summary of the method: as §1

[15] = system: LCLC-97TM1
Summary of the method: as §1

[16] = system: EPLC-272H
Summary of the method: as §1

[17] = system: NCI-H1563
Summary of the method: as §1

[18] = system: NCI-H1651
Summary of the method: as §1

[19] = system: HCC-44
Summary of the method: as §1

[20] = system: NCI-H2087
Summary of the method: as §1

[21] = system: NCI-H2085
Summary of the method: as §1

[22] = system: NCI-H1355
Summary of the method: as §1

## NC(=O)Nc1cc(-c2cccc(F)c2)sc1C(=O)N[C@H]1CCCNC1 [AZD7762] + Cc1nc(NC(=O)N2CCC[C@H]2C(N)=O)sc1-c1ccnc(C(C)(C)C(F)(F)F)c1 [Alpelisib] (partner 2 µM)
[1]; first compound 0.01 µM
  relative viability: 1.03
[1]; first compound 0.03162 µM
  relative viability: 0.962
[1]; first compound 0.1 µM
  relative viability: 1.06
[1]; first compound 0.3162 µM
  relative viability: 1.03
[1]; first compound 1 µM
  relative viability: 0.653
[2]; first compound 0.01 µM
  relative viability: 0.651
[2]; first compound 0.03162 µM
  relative viability: 0.608
[2]; first compound 0.1 µM
  relative viability: 0.436
[2]; first compound 0.3162 µM
  relative viability: 0.328
[2]; first compound 1 µM
  relative viability: 0.108
[3]; first compound 0.01 µM
  relative viability: 0.82
[3]; first compound 0.03162 µM
  relative viability: 0.72
[3]; first compound 0.1 µM
  relative viability: 0.79
[3]; first compound 0.3162 µM
  relative viability: 0.762
[3]; first compound 1 µM
  relative viability: 0.797
[4]; first compound 0.01 µM
  relative viability: 1.19
[4]; first compound 0.03162 µM
  relative viability: 1.12
[4]; first compound 0.1 µM
  relative viability: 1.19
[4]; first compound 0.3162 µM
  relative viability: 1.27
[4]; first compound 1 µM
  relative viability: 1.02
[5]; first compound 0.01 µM
  relative viability: 0.808
[5]; first compound 0.03162 µM
  relative viability: 0.79
[5]; first compound 0.1 µM
  relative viability: 0.671
[5]; first compound 0.3162 µM
  relative viability: 0.445
[5]; first compound 1 µM
  relative viability: 0.27
[6]; first compound 0.01 µM
  relative viability: 0.835
[6]; first compound 0.03162 µM
  relative viability: 0.795
[6]; first compound 0.1 µM
  relative viability: 0.627
[6]; first compound 0.3162 µM
  relative viability: 0.854
[6]; first compound 1 µM
  relative viability: 0.524
[7]; first compound 0.01 µM
  relative viability: 0.776
[7]; first compound 0.03162 µM
  relative viability: 0.906
[7]; first compound 0.1 µM
  relative viability: 0.819
[7]; first compound 0.3162 µM
  relative viability: 0.94
[7]; first compound 1 µM
  relative viability: 0.906
[8]; first compound 0.01 µM
  relative viability: 1.2
[8]; first compound 0.03162 µM
  relative viability: 1.1
[8]; first compound 0.1 µM
  relative viability: 1.16
[8]; first compound 0.3162 µM
  relative viability: 0.649
[8]; first compound 1 µM
  relative viability: 0.436
[9]; first compound 0.01 µM
  relative viability: 1.01
[9]; first compound 0.03162 µM
  relative viability: 1.02
[9]; first compound 0.1 µM
  relative viability: 1
[9]; first compound 0.3162 µM
  relative viability: 0.985
[9]; first compound 1 µM
  relative viability: 0.659
[10]; first compound 0.01 µM
  relative viability: 1.01
[10]; first compound 0.03162 µM
  relative viability: 0.962
[10]; first compound 0.1 µM
  relative viability: 0.889
[10]; first compound 0.3162 µM
  relative viability: 0.977
[10]; first compound 1 µM
  relative viability: 0.9
[11]; first compound 0.01 µM
  relative viability: 0.855
[11]; first compound 0.03162 µM
  relative viability: 1.03
[11]; first compound 0.1 µM
  relative viability: 1.01
[11]; first compound 0.3162 µM
  relative viability: 1.08
[11]; first compound 1 µM
  relative viability: 0.893
[12]; first compound 0.01 µM
  relative viability: 0.968
[12]; first compound 0.03162 µM
  relative viability: 0.946
[12]; first compound 0.1 µM
  relative viability: 1.02
[12]; first compound 0.3162 µM
  relative viability: 1.09
[12]; first compound 1 µM
  relative viability: 0.591
[13]; first compound 0.01 µM
  relative viability: 0.727
[13]; first compound 0.03162 µM
  relative viability: 0.63
[13]; first compound 0.1 µM
  relative viability: 0.634
[13]; first compound 0.3162 µM
  relative viability: 0.705
[13]; first compound 1 µM
  relative viability: 0.357
[14]; first compound 0.01 µM
  relative viability: 1.05
[14]; first compound 0.03162 µM
  relative viability: 1.04
[14]; first compound 0.1 µM
  relative viability: 0.832
[14]; first compound 0.3162 µM
  relative viability: 0.635
[14]; first compound 1 µM
  relative viability: 0.371
[15]; first compound 0.01 µM
  relative viability: 0.292
[15]; first compound 0.03162 µM
  relative viability: 0.272
[15]; first compound 0.1 µM
  relative viability: 0.314
[15]; first compound 0.3162 µM
  relative viability: 0.278
[15]; first compound 1 µM
  relative viability: 0.298
[16]; first compound 0.01 µM
  relative viability: 1.07
[16]; first compound 0.03162 µM
  relative viability: 1.1
[16]; first compound 0.1 µM
  relative viability: 1.13
[16]; first compound 0.3162 µM
  relative viability: 0.992
[16]; first compound 1 µM
  relative viability: 0.674
[17]; first compound 0.01 µM
  relative viability: 1.01
[17]; first compound 0.03162 µM
  relative viability: 0.918
[17]; first compound 0.1 µM
  relative viability: 0.978
[17]; first compound 0.3162 µM
  relative viability: 0.943
[17]; first compound 1 µM
  relative viability: 0.76
[18]; first compound 0.01 µM
  relative viability: 0.918
[18]; first compound 0.03162 µM
  relative viability: 0.849
[18]; first compound 0.1 µM
  relative viability: 0.927
[18]; first compound 0.3162 µM
  relative viability: 0.753
[18]; first compound 1 µM
  relative viability: 0.33
[19]; first compound 0.01 µM
  relative viability: 0.818
[19]; first compound 0.03162 µM
  relative viability: 0.751
[19]; first compound 0.1 µM
  relative viability: 0.831
[19]; first compound 0.3162 µM
  relative viability: 0.755
[19]; first compound 1 µM
  relative viability: 0.952
[20]; first compound 0.01 µM
  relative viability: 1.18
[20]; first compound 0.03162 µM
  relative viability: 1.08
[20]; first compound 0.1 µM
  relative viability: 1.45
[20]; first compound 0.3162 µM
  relative viability: 1.34
[20]; first compound 1 µM
  relative viability: 1.27
[21]; first compound 0.01 µM
  relative viability: 1.06
[21]; first compound 0.03162 µM
  relative viability: 0.928
[21]; first compound 0.1 µM
  relative viability: 1.1
[21]; first compound 0.3162 µM
  relative viability: 1.06
[21]; first compound 1 µM
  relative viability: 0.782
[22]; first compound 0.01 µM
  relative viability: 0.894
[22]; first compound 0.03162 µM
  relative viability: 0.886
[22]; first compound 0.1 µM
  relative viability: 0.825
[22]; first compound 0.3162 µM
  relative viability: 0.861
[22]; first compound 1 µM
  relative viability: 0.852
